From patent US20090170810A1, “METHODS OF TREATMENT OF CARDIOVASCULAR AND CEREBROVASCULAR DISEASES WITH LOW MOLECULAR WEIGHT FUCOIDAN” (Beijing Century Biocom Pharmaceutical Technology Co. Ltd., priority 2006, published 2009)

Tests used:
[1] = system: decapitated mice; test: Brain index and brain water content in decapitated mice; format: in vivo, ICR mice; conditions: 2 mg/kg
Description: (§1) ICR mice (equally divided between male and female) were divided randomly in a blank control group, a positive control group and dosage groups of sample A (200, 100, and 50 mg/kg) and sample B (400, 200, 100, 50 mg/kg). The mice in medical groups were administrated by tail intravenous injection, and the dosage was […]. The positive control group was administrated nimodipine (2 mg/kg) by tail intravenous injection. The model group was administrated normal salt. At 15 minutes after administration, the mice were decapitated by a pair of scissors. The mouth breathing time, breathing frequency and brain water content were recorded and compared with other groups.
Measurement of brain water content: whole brains were collected, after the wet weight was obtained, they were dried in an oven at 100° C. for 24 hours, the average value was taken to calculate brain water content: brain water content(%)=[…]. Brain index: brain index=brain wet weight (g)/body weight (g)×100%.

[2] = system: brain of ischemic mice; test: Cerebral ischemia in mice with common carotid artery ligation and reperfusion (brain LDH, SOD); format: in vivo; conditions: 2 mg/kg
Description: Experimental grouping: a control group and a model group (respectively administrating an equal volume of normal salt), a positive control group (nimodipine, 2 mg/kg), sample A groups (200, 100, and 50 mg/kg), and sample B groups (200, 100, and 50 mg/kg), the injection dosage being […].
Animal model setup: the grouped mice were respectively administrated test substance, nimodipine or normal salt by tail intravenous injection. After 15 minutes, the mice were anesthetized with 3.5% chloral hydrate, fixed in the back. The right and left common carotid artery and vagus nerve were exposed, and 4-0 suture was inserted under the bilateral carotid arteries. The line was tightened to block blood flow for 5 minutes. Then the line was loosened to make the blood reperfusion for 10 minutes. The operation was repeated three times, and an ischemia-reperfusion model in mice was established. After the last reperfusion, the mice were decapitated and brain collected. In the control group, only the bilateral carotid arteries were exposed, without line being inserted.

[3] = system: decapitated mice; test: Breathing time and breathing frequency in decapitated mice; format: in vivo, ICR mice; conditions: 2 mg/kg, tail i.v., decapitated 15 minutes after administration
Description: as §1

Compound: COCCOC(=O)C1=C(C)NC(C)=C(C(=O)OC(C)C)C1c1cccc([N+](=O)[O-])c1 (stereo not drawn) [Nimodipine, nimodipine]
- Brain index (%) [1]: 1.40 ± 0.14 %
- Brain water content (%) [1]: 75.1 ± 0.9 %
- LDH (U/mg) [2]: 11.3 ± 6.6 U/mg
- SOD (U/mg) [2]: 144.77 ± 21.61 U/mg
- Breathing frequency (times) [3]: 17.0 ± 3.2 times
- Breathing time [3]: 23.8 ± 3.2 s
